From patent US6486146B1, “Cancer accelerants and phase synchronization methods” (priority 2000, dated 2002)
Like-named read-outs stand apart in the source and are kept apart here.

Key:
colon cancer tumor = assay: Mathematical model of tumor size until lethal burden using 32% kill rate; conditions: at both doses (125 mg and 100 mg), inferred from fit of the model to observed survival
colon cancer = conditions: cited from earlier work
[1] = test system: gastrointestinal epithelial cells; assay: Expected kill of gastrointestinal epithelium from terminal half life versus cell cycle time
topoisomerase I = molecular target: T1, topoisomerase I (Homo sapiens, UniProt P11387); conditions: SN-38 versus irinotecan; cited from earlier work
T1 sequence (P11387 1-765): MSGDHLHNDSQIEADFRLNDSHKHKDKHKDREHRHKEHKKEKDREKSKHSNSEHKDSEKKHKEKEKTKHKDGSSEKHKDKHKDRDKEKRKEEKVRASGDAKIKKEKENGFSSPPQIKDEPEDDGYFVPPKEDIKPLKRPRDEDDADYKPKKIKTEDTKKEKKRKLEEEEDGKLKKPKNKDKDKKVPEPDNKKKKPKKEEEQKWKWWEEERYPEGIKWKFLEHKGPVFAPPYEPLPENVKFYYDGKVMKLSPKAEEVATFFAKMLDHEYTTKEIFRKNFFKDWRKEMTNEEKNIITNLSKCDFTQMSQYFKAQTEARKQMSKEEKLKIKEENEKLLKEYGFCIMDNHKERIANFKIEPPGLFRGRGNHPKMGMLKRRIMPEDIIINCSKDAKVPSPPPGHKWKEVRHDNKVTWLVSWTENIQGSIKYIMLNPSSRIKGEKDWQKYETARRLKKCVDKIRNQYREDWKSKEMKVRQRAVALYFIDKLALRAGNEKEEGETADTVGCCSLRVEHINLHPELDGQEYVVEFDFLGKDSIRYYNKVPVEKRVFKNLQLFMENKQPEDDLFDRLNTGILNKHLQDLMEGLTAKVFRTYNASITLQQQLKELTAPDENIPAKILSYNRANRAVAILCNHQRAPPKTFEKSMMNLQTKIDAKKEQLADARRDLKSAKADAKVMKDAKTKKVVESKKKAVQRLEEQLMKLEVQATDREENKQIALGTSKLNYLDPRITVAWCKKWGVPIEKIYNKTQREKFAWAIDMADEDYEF

[2] = test system: metastatic breast cancer that possesses estrogen receptors; assay: Example 4 patient, prior art doxorubicin regimen, tumor size; type: in vivo; conditions: 30 mg/m2 once per week for 4 weeks, 3 cycles; illustrative patient example

SMILES: CCc1c2c(nc3ccc(OC(=O)N4CCC(N5CCCCC5)CC4)cc13)-c1cc3c(c(=O)n1C2)COC(=O)[C@]3(O)CC [Camptosar, irinotecan]
- S-Phase kill rate (colon cancer tumor): ~100%
- median survival observed (colon cancer; 100 mg once every 7 days for 4 weeks, 2 weeks off, 2 cycles, months x 30 days): 279 days
- median survival observed (colon cancer; 100 mg regimen): 9.3 mo.
- median survival observed (colon cancer; 125 mg once every 7 days for 4 weeks, 2 weeks off, 3 cycles, months x 30 days): 321 days
- median survival observed (colon cancer; 125 mg regimen): 10.7 mo.
- mortality to gastrointestinal epithelium ([1]; present invention LD 60): 65%
- gastrointestinal epithelium killed ([1]; prior art LD 125 mg): 95%

SMILES: CCc1c2c(nc3ccc(O)cc13)-c1cc3c(c(=O)n1C2)COC(=O)[C@]3(O)CC [SN-38]
- potency as a topoisomerase inhibitor relative to irinotecan (topoisomerase I): ~1,000 times

SMILES: COc1cccc2c1C(=O)c1c(O)c3c(c(O)c1C2=O)C[C@@](O)(C(=O)CO)C[C@@H]3O[C@H]1C[C@H](N)[C@H](O)[C@H](C)O1 [doxorubicin]
- reduction in tumor size after the regimen [2]: 32%
